In PubChem BioAssay AID1259407 (Chemical Carcinogenesis Research Information System (CCRIS), 2018) one finds mutagenic call data, which are given here for 7 compounds.

This data set concerns CCRIS mutagenicity, Ames/micronucleus/aberration tests. Briefly: CCRIS mutagenicity studies. From the text:
The CCRIS database contains chemical records with carcinogenicity, mutagenicity, tumor promotion, and tumor inhibition test results. It was developed by the National Cancer Institute (NCI). Data are derived from studies cited in primary journals, current awareness tools, NCI reports, and other sources. Test results have been reviewed by experts in carcinogenesis and mutagenesis.
CCRIS provides historical information from the years 1985 - 2011. It is no longer updated.
This is an archive assay for CCRIS mutagenicity studies.

Setting [1] is: Test System: AMES SALMONELLA TYPHIMURIUM, Strain/Indicator: TA98, Metabolic Activation: HAMSTER, LIVER, S-9, AROCLOR 1254 (10%), Method: PREINCUBATION
Where [2] appears, read: Test System: AMES SALMONELLA TYPHIMURIUM, Strain/Indicator: TA98, Metabolic Activation: NONE, Method: PREINCUBATION
Setting [3] is: Test System: AMES SALMONELLA TYPHIMURIUM, Strain/Indicator: TA98, Metabolic Activation: RAT, LIVER, S-9, AROCLOR 1254 (10%), Method: PREINCUBATION
The mark [4] stands for this setting: Test System: AMES SALMONELLA TYPHIMURIUM, Strain/Indicator: TA100, Metabolic Activation: HAMSTER, LIVER, S-9, AROCLOR 1254 (10%), Method: PREINCUBATION
Setting [5] is: Test System: AMES SALMONELLA TYPHIMURIUM, Strain/Indicator: TA100, Metabolic Activation: NONE, Method: PREINCUBATION
The mark [6] stands for this setting: Test System: AMES SALMONELLA TYPHIMURIUM, Strain/Indicator: TA100, Metabolic Activation: RAT, LIVER, S-9, AROCLOR 1254 (10%), Method: PREINCUBATION
Setting [7] is: Test System: AMES SALMONELLA TYPHIMURIUM, Strain/Indicator: TA1535, Metabolic Activation: HAMSTER, LIVER, S-9, AROCLOR 1254 (10%), Method: PREINCUBATION
The mark [8] stands for this setting: Test System: AMES SALMONELLA TYPHIMURIUM, Strain/Indicator: TA1535, Metabolic Activation: NONE, Method: PREINCUBATION
The mark [9] stands for this setting: Test System: AMES SALMONELLA TYPHIMURIUM, Strain/Indicator: TA1535, Metabolic Activation: RAT, LIVER, S-9, AROCLOR 1254 (10%), Method: PREINCUBATION
Setting [10] is: Test System: AMES SALMONELLA TYPHIMURIUM, Strain/Indicator: TA1537, Metabolic Activation: HAMSTER, LIVER, S-9, AROCLOR 1254 (10%), Method: PREINCUBATION
[11] abbreviates: Test System: AMES SALMONELLA TYPHIMURIUM, Strain/Indicator: TA1537, Metabolic Activation: NONE, Method: PREINCUBATION
The mark [12] stands for this setting: Test System: AMES SALMONELLA TYPHIMURIUM, Strain/Indicator: TA1537, Metabolic Activation: RAT, LIVER, S-9, AROCLOR 1254 (10%), Method: PREINCUBATION
Where [13] appears, read: Test System: AMES SALMONELLA TYPHIMURIUM, Strain/Indicator: TA98, Metabolic Activation: NONE, Method: STANDARD PLATE.
[14] abbreviates: Test System: AMES SALMONELLA TYPHIMURIUM, Strain/Indicator: TA100, Metabolic Activation: NONE, Method: STANDARD PLATE.

Active and inactive are the calls of the source. The rule behind the calls is not given here.

`Nc1ccc(Sc2ccc(N)cc2)cc1`: the mutagenic call reads like this: (Test System: AMES SALMONELLA TYPHIMURIUM, Strain/Indicator: TA97, Metabolic Activation: HAMSTER, LIVER, S-9, AROCLOR 1254 (10%), Method: PREINCUBATION) “active; positive”; (Test System: AMES SALMONELLA TYPHIMURIUM, Strain/Indicator: TA97, Metabolic Activation: NONE, Method: PREINCUBATION) “inactive; negative”; (Test System: AMES SALMONELLA TYPHIMURIUM, Strain/Indicator: TA97, Metabolic Activation: RAT, LIVER, S-9, AROCLOR 1254 (10%), Method: PREINCUBATION) “active; positive”; under setting [1], “active; positive”; under setting [2], “inactive; negative”; under setting [3], “active; positive”. Moreover, the mutagenic call (Test System: AMES SALMONELLA TYPHIMURIUM, Strain/Indicator: TA98, Metabolic Activation: RAT, LIVER, S-9, PCB, Method: PREINCUBATION) was “active; positive”; the mutagenic call under setting [4] was “active; positive”; the mutagenic call under setting [5] was “active; positive”; the mutagenic call under setting [6] was “active; positive”; the mutagenic call (Test System: AMES SALMONELLA TYPHIMURIUM, Strain/Indicator: TA100, Metabolic Activation: RAT, LIVER, S-9, PCB, Method: PREINCUBATION) is “active; positive”; the mutagenic call under setting [7] was “inactive; negative”. The mutagenic call is “inactive; negative” under setting [8]; “inactive; negative” under setting [9]; “inactive; negative” under setting [10]; “inactive; negative” under setting [11]; “inactive; negative” under setting [12].
Consider `N#CC(C#N)=Cc1ccc([N+](=O)[O-])o1`, for which the mutagenic call under setting [2] was “active; positive”.
In the case of `O=[N+]([O-])c1cccc2c1c([N+](=O)[O-])cc1ccccc12`, the mutagenic call by setting is: (Test System: AMES SALMONELLA TYPHIMURIUM, Strain/Indicator: TA98(1,8-DNP6), Metabolic Activation: NONE, Method: STANDARD PLATE) “active; positive”; (Test System: AMES SALMONELLA TYPHIMURIUM, Strain/Indicator: TA98(NR), Metabolic Activation: NONE, Method: STANDARD PLATE) “active; positive”; under setting [13], “active; positive”; under setting [14], “active; positive”; (Test System: AMES SALMONELLA TYPHIMURIUM, Strain/Indicator: YG1021, Metabolic Activation: NONE, Method: STANDARD PLATE) “active; positive”; (Test System: AMES SALMONELLA TYPHIMURIUM, Strain/Indicator: YG1024, Metabolic Activation: NONE, Method: STANDARD PLATE) “active; positive”. In addition, the mutagenic call reads like this: (Test System: AMES SALMONELLA TYPHIMURIUM, Strain/Indicator: YG1026, Metabolic Activation: NONE, Method: STANDARD PLATE) “active; positive”; (Test System: AMES SALMONELLA TYPHIMURIUM, Strain/Indicator: YG1029, Metabolic Activation: NONE, Method: STANDARD PLATE) “active; positive”.
Regarding `C1CCCNCC1`, the mutagenic call was “inactive; negative” under setting [2]; “inactive; negative” (Test System: AMES SALMONELLA TYPHIMURIUM, Strain/Indicator: TA98, Metabolic Activation: RAT LIVER S-9, PHENOBARBITAL AND BETA-NAPHTHOFLAVONE, Method: PREINCUBATION); “inactive; negative” under setting [5]; “inactive; negative” (Test System: AMES SALMONELLA TYPHIMURIUM, Strain/Indicator: TA100, Metabolic Activation: RAT LIVER S-9, PHENOBARBITAL AND BETA-NAPHTHOFLAVONE, Method: PREINCUBATION); “inactive; negative” under setting [8]; “inactive; negative” (Test System: AMES SALMONELLA TYPHIMURIUM, Strain/Indicator: TA1535, Metabolic Activation: RAT LIVER S-9, PHENOBARBITAL AND BETA-NAPHTHOFLAVONE, Method: PREINCUBATION). Moreover, the mutagenic call reads like this: under setting [11], “inactive; negative”; (Test System: AMES SALMONELLA TYPHIMURIUM, Strain/Indicator: TA1537, Metabolic Activation: RAT LIVER S-9, PHENOBARBITAL AND BETA-NAPHTHOFLAVONE, Method: PREINCUBATION) “inactive; negative”; (Test System: E.COLI, Strain/Indicator: WP2UVRA, Metabolic Activation: NONE, Method: PREINCUBATION) “inactive; negative”; (Test System: E.COLI, Strain/Indicator: WP2UVRA, Metabolic Activation: RAT LIVER S-9, PHENOBARBITAL AND BETA-NAPHTHOFLAVONE, Method: PREINCUBATION) “inactive; negative”.
In the case of `C=CC(=O)N(CC1CO1)CC1CO1` (stereo not drawn), the mutagenic call by setting is: under setting [2], “active; positive”; under setting [13], “active; positive”; (Test System: AMES SALMONELLA TYPHIMURIUM, Strain/Indicator: TA98, Metabolic Activation: RAT, LIVER, S-9, AROCLOR 1254, Method: PREINCUBATION) “inactive; negative”; (Test System: AMES SALMONELLA TYPHIMURIUM, Strain/Indicator: TA98, Metabolic Activation: RAT, LIVER, S-9, AROCLOR 1254, Method: STANDARD PLATE) “active; positive”; under setting [5], “active; positive”; under setting [14], “active; positive”. The mutagenic call (Test System: AMES SALMONELLA TYPHIMURIUM, Strain/Indicator: TA100, Metabolic Activation: RAT, LIVER, S-9, AROCLOR 1254, Method: PREINCUBATION) is “active; positive” and the mutagenic call (Test System: AMES SALMONELLA TYPHIMURIUM, Strain/Indicator: TA100, Metabolic Activation: RAT, LIVER, S-9, AROCLOR 1254, Method: STANDARD PLATE) is “active; positive”.
Regarding `OC/C=C/Cl`, the mutagenic call was “inactive; negative” under setting [14] and “active; positive” (Test System: AMES SALMONELLA TYPHIMURIUM, Strain/Indicator: TA100, Metabolic Activation: RAT, LIVER, S-9, PCB, Method: STANDARD PLATE).
On to `CC(=O)/C=C/c1ccco1`, for which the mutagenic call reads like this: under setting [1], “inactive; negative”; under setting [2], “inactive; negative”; under setting [3], “inactive; negative”; under setting [4], “inactive; negative”; under setting [5], “inactive; negative”; under setting [6], “inactive; negative”. For the same compound, the mutagenic call is, setting by setting: under setting [7], “inactive; negative”; under setting [8], “inactive; negative”; under setting [9], “inactive; negative”; under setting [10], “inactive; negative”; under setting [11], “inactive; negative”; under setting [12], “inactive; negative”.
